Measured values as given in patent US7825092B2, “Dendroaspis natriuretic peptide for treatment of cancer” (University of South Florida, priority 2006, dated 2010).

Experiments:
[1] = system: human glioblastoma cells (ATCC number CRL-11543); test: number of human glioblastoma cells counted after incubation with peptide hormones; format: cell-based; conditions: for decrease in number of human glioblastoma cells compared to control: at 96 hours (three days after 24 hours exposure); for number of glioblastoma cancer cells remaining (per field): 24 hours, mean±SEM, control 130±3 cells
Procedure: A cell line (ATCC number CRL-11543) of human glioblastoma cells were purchased from American Type Culture Collection (ATCC, Manassas, Va.). This glioblastoma cell line was deposited by the Ludwig Institute for Cancer Research, University of California at San Diego, La Jolla, Calif. This glioblastoma cell line produces angiogensis inhibiting factor.
Propagation of these human glioblastoma cells was in Dulbecco's modified Eagle's medium with 4 mM L-glutamine adjusted to contain 1.5 g/L sodium bicarconate and 4.5 g/L glucose supplemented with 1 μg/ml tetracycline, […], and 10% fetal bovine serum (Atlanta Biologicals, Lawrenceville, Ga.) at a temperature of 37° C. in a […] environment as recommended by the ATCC. Cells were dispensed in new flasks with subculturing two to three times per week.
After the glioblastoma cells were subcultured for 24 hours they were then seeded to coverslips in 24-well plates (Nunclon™, Roskilde, Denmark) with 1 mL of the above media. There were 65,000 cells seeded to each coverslip. After 24 hours, the well plates were washed twice with phosphate-buffered saline to remove the fetal bovine serum. Removal of serum was carried out to completely remove all variables (EGF, etc.) present in serum in order that interpretation of any data obtained would be straightforward. After 24 hours of serum deprivation, media volume was reduced to 250 μL per well with, or without, the respective peptide hormones in dose-response curves with concentrations up to and including 100 μM (1% of this volume). Human glioblastoma cells were then incubated for various periods of time (24, 48, 72, and 96 hours). The number of glioblastoma carcinoma cells were then counted with a cell counter (Thomas Scientific, Swedesboro, N.J.) evaluating ten fields of the microscope slide at ×40 along the X-axis with an Olympus BH-2 microscope (Atlanta, Ga.). This evaluation was repeated on six separate occasions with the number of human glioblastoma cells reflecting 60 observations for each group, i.e., 60 observations for controls and 60 observations for each of the five groups with respective peptide hormones. The peptide hormones used in this investigation were from Phoenix Pharmaceuticals, Inc., Belmont, Calif. In the Results section, the number of cancer cells reported is the number of cells in each individual field. Ten fields were examined on each microscope slide. The results of the ten fields were pooled and the average of the ten fields is illustrated in the Results section.
(§1) The data obtained in this investigation are illustrated as mean±SEM. Maximum changes in cell death (evaluated six times with ten areas of microscope slide evaluated each time) and DNA synthesis within groups were determined by a paired one-tailed Student's t test evaluated with statistical module of Excel software. To be considered statistically significant, we required a probability value to be <0.05 (95% confidence limits).

[2] = human or animal subjects; cited from earlier work
human glioblastoma cells = test: DNA synthesis by bromodeoxyuridine (BrdU) incorporation; format: cell-based; conditions: 1 μM, 24 hours
Procedure: To investigate whether these peptide hormones were inhibiting DNA synthesis, bromodeoxyuridine (BrdU) incorporation into the human glioblastoma cells was utilized as previously described from our laboratory. BrdU was from BD Bioscience, San Jose, Calif. After 24 hours in culture with 1 μM of LANP, vessel dilator, kaliuretic peptide, ANP, and DNP, respectively, or with no peptide hormone (i.e., control), BrdU in a final concentration of 10 μM in the cell culture medium was added for 45 minutes, which is the time in which the cells are in the logarithmic phase of cell proliferation.
as §1

[3] = system: human prostate cancer cells; conditions: cited from earlier work
[4] = system: small-cell lung cancer cells; conditions: 1 μM; cited from earlier work
[5] = system: human pancreatic adenocarcinoma cells; conditions: 1 μM; cited from earlier work
human colon cancer cells = conditions: within 24 hours; cited from earlier work
[6] = system: human pancreatic adenocarcinomas; conditions: in one week, athymic mice; cited from earlier work
[7] = 1 μM, at 48 hours (24 hours exposure only)
[8] = 1 μM, at 72 hours (24 hours exposure only)
[9] = 10 μM, at 48 hours (24 hours exposure only)
[10] = 10 μM, at 72 hours (24 hours exposure only)
[11] = 100 μM, at 48 hours (24 hours exposure only)
[12] = 100 μM, at 72 hours (24 hours exposure only)

| Compound | decrease in number of human glioblastoma cells ([1]; 1 μM, at 24 hours) | decrease in number of human glioblastoma cells [1, 7] | decrease in number of human glioblastoma cells [1, 8] | decrease in number of human glioblastoma cells compared to control ([1]; 1 μM) | decrease in number of human glioblastoma cells ([1]; 10 μM, at 24 hours) | decrease in number of human glioblastoma cells [1, 9] | decrease in number of human glioblastoma cells [1, 10] | decrease in number of human glioblastoma cells compared to control ([1]; 10 μM) | number of glioblastoma cancer cells remaining (per field) ([1]; 100 μM) | decrease in number of human glioblastoma cells ([1]; 100 μM, at 24 hours) | decrease in number of human glioblastoma cells [1, 11] | decrease in number of human glioblastoma cells [1, 12] | decrease in number of human glioblastoma cells compared to control ([1]; 100 μM) | side effect hypotension [2] | decrease in DNA synthesis (human glioblastoma cells) | further results |
| --- | --- | --- | --- | --- | --- | --- | --- | --- | --- | --- | --- | --- | --- | --- | --- | --- |
| long acting natriuretic peptide (NPMYNAVSNADLMDFKNLLDHLEEKMPLED; Long-acting natriuretic peptide; UniProt P01160 26-55, looked up, fragment) [LANP, cardiac hormone, first 30 amino acids of the 126 a.a. atrial natriuretic peptide prohormone] | 31% | 31% | 31% | 24% | 49% | 50% | 50% | 39% | 43±2 cells | 65% | 65% | 66% | 61% | never | 65% |  |
| Dendroaspis natriuretic peptide [DNP] |  | 1% | 1% | 1% |  | 7% | 6% | 5% |  | 17% | 19% | 19% | 8% |  | 23% | concentration where first began to have an effect on glioblastoma cells [1]: 100 µM; difference in concentration with significant anticancer effects, DNP versus human cardiac hormones ([1]; DNP higher, human cardiac hormones lower): 100 fold; killing / elimination of human glioblastoma cells, up to ([1]; within 24 hours, maximum effect, concentration not given): up to 19% |
| brain natriuretic peptide [BNP, reference compound] |  |  |  |  |  |  |  |  |  |  |  |  |  |  | 23% |  |
| kaliuretic peptide | 33% | 32% | 32% | 25% | 51% | 51% | 52% | 40% | 43±2 cells | 68% | 68% | 68% | 64% | never | 77% | decrease in prostate adenocarcinoma cells ([3]; 1 μM): 30%; decrease in number of human glioblastoma cells ([1]; 1 μM, at 24 hours, listed as Kaliuretic peptide): 32%; decrease in small-cell lung cancer cells [4]: 30%; decrease in human pancreatic adenocarcinoma cells [5]: 37% |
| CC[C@H](C)[C@@H]1NC(=O)[C@H](CCCNC(=N)N)NC(=O)[C@H](CC(=O)O)NC(=O)[C@H](CCSC)NC(=O)[C@H](CCCNC(=N)N)NC(=O)CNC(=O)CNC(=O)[C@H](Cc2ccccc2)NC(=O)[C@@H](NC(=O)[C@H](CO)NC(=O)[C@H](CO)NC(=O)[C@H](CCCNC(=N)N)NC(=O)[C@H](CCCNC(=N)N)NC(=O)[C@H](CC(C)C)NC(=O)[C@@H](N)CO)CSSC[C@@H](C(=O)N[C@@H](CC(N)=O)C(=O)N[C@@H](CO)C(=O)N[C@@H](Cc2ccccc2)C(=O)N[C@@H](CCCNC(=N)N)C(=O)N[C@@H](Cc2ccc(O)cc2)C(=O)O)NC(=O)CNC(=O)[C@H](CC(C)C)NC(=O)CNC(=O)[C@H](CO)NC(=O)[C@H](CCC(N)=O)NC(=O)[C@H](C)NC(=O)CNC1=O [ANP, atrial natriuretic peptide] |  |  |  | 24% |  |  |  | 43% |  |  |  |  | 60% | observed | 79% |  |
| vessel dilator | 53% | 53% | 53% | 43% | 60% | 60% | 60% | 55% | 33±2 cells | 75% | 76% | 76% | 68% | never | 87% | decrease in number of human colon cancer cells, up to (human colon cancer cells): up to 97%; decrease in number of human prostate cancer cells, up to ([3]; within 24 hours): up to 97%; lower concentration causing the same decrease as the other peptide hormones ([1]; within 24 hours, FIG. 2): 10 fold; decrease in tumor volume [6]: 49% |
